# Experimental data taken from patent publication EP2601963B1, “N-ISOVALEROYL-L-GLUTAMYL-L-TRYPTOPHAN AS AN AGENT INHIBITING THE FORMATION OF ULCERS IN THE STOMACH AND THE DUODENUM” (Obshestvo S Ogranichennoj Otvetstvennostju "CytoNIR", priority 2010, dated 2015).
# Columns and labels:
# Format in all cases: in vivo, male Wistar rats
# [1] = system: superoxide dismutase (SODM); experiment: Indomethacin-induced ulcer model, preventive: superoxide dismutase activity in blood serum
# Method: (§1) Intensity of the free radical oxidation was evaluated by the malondialdehyde (MDA) accumulation in blood serum [R.A. Temirbulatov, Ye.I. Seleznev Method for Increasing the Intensity of Free Radical Oxidation in Lipid-Containing Blood Components and its Diagnostic Significance // Labor. Delo, 1981, # 4, p.p. 209 - 211]. The state of the antioxidant systems was evaluated by the superoxide dismutase (SODM) activity [S. Chevari , I. Chaba, Y. Sekei. The Role of Superoxide Dismutase in Cellular Oxidative Processes and Method of its Determination in Biological Materials // Labor. Delo, 1985, # 11, p.p. 678 - 681].
# (§2) The efficacy of the course of preventive treatment with the claimed composition was evaluated 24 hrs. post indomethacin administration. The study was conducted as in Example 1.
# [2] = system: alkaline phosphatase (AP); experiment: Indomethacin-induced ulcer model, preventive: alkaline phosphatase activity in blood serum
# Method: (§3) Alanine aminotransferase (ALT) and alkaline phosphatase (AP) activity in blood serum was determined with "Vital Development Corporation" kits.
# as §2
# malondialdehyde (MDA) [3] = experiment: Indomethacin-induced ulcer model, therapeutic: malondialdehyde in blood serum; conditions: for MDA: treatment 5 days after Indomethacin
# Method: as §1
# (§4) 2 ml/kg of the ulcerogenic dose of indomethacin equal to 30 mg/kg was administered intraperitoneally. The treatment started 24 hrs. post indomethacin administration and continued for 5 days. The animals in the experimental groups received N-isovaleroyl-L-glutamyl-L-tryptophan or the comparator drug Sucralfate, and the control group received distilled water.
# [4] = Indomethacin-induced ulcer model, preventive: weight of organs
# Method: (§5) Intensity of changes caused by stressors in the internal organs of the animals was evaluated by the relative weight changes of the adrenal glands, thymus, and spleen calculated as a ratio of the organ's weight to the body weight of the animal multiplied by 100.
# as §2
# [5] = system: superoxide dismutase (SODM); experiment: Water-immersion stress model: superoxide dismutase activity in blood serum
# Method: as §1
# [6] = Water-immersion stress model: weight of organs
# Method: as §5
# [7] = Indomethacin-induced ulcer model, therapeutic: survival; conditions: Indomethacin 30 mg/kg
# Method: as §4
# On the 5th day, only 7 out of 10 animals in the control group survived, while in the group receiving VGT 9 out of 10 survived.
# malondialdehyde (MDA) [8] = experiment: Indomethacin-induced ulcer model, preventive: malondialdehyde in blood serum
# Method: as §1, §2
# [9] = system: alkaline phosphatase (AP); experiment: Water-immersion stress model: alkaline phosphatase activity in blood serum
# Method: as §3
# [10] = system: Alanine aminotransferase (ALT); experiment: Indomethacin-induced ulcer model, preventive: alanine aminotransferase activity in blood serum
# Method: as §3, §2
# [11] = system: alkaline phosphatase (AP); experiment: Indomethacin-induced ulcer model, therapeutic: alkaline phosphatase activity in blood serum; conditions: treatment 5 days after Indomethacin
# Method: as §3, §4
# malondialdehyde (MDA) [12] = experiment: Water-immersion stress model: malondialdehyde in blood serum
# Method: as §1
# [13] = Indomethacin-induced ulcer model, therapeutic: weight of organs; conditions: treatment 5 days after Indomethacin
# Method: as §5, §4
# [14] = system: Alanine aminotransferase (ALT); experiment: Indomethacin-induced ulcer model, therapeutic: alanine aminotransferase activity in blood serum; conditions: treatment 5 days after Indomethacin
# Method: as §3, §4
# [15] = system: superoxide dismutase (SODM); experiment: Indomethacin-induced ulcer model, therapeutic: superoxide dismutase activity in blood serum; conditions: treatment 5 days after Indomethacin
# Method: as §1, §4
# [16] = system: Alanine aminotransferase (ALT); experiment: Water-immersion stress model: alanine aminotransferase activity in blood serum
# Method: as §3
# [17] = Indomethacin intoxication, therapeutic: changes in body weight; conditions: Indomethacin 30 mg/kg, Before Indomethacin = 100
# Method: as §4
# Some loss of weight of the intact animals could be contributed to the 18-hr fasting. […]
# [18] = blood serum, 0.1 mkg/kg + Indomethacin 20 mg/kg, preventive
# [19] = blood serum, 10 mkg/kg + Indomethacin 20 mg/kg, preventive
# [20] = preventive administration, indomethacin 20 mg/kg
# [21] = 0.1 mkg/kg + Indomethacin 20 mg/kg
# [22] = 10 mkg/kg + Indomethacin 20 mg/kg
# [23] = 200 mg/kg + Indomethacin 20 mg/kg
substance,measurement,setting,value
N-isovaleroyl-L-glutamyl-L-tryptophan [VGT preparation],SODM,[1]; [18],2.50 ± 0.05 con. units/ml
same,SODM,[1]; [19],2.58 ± 0.14 con. units/ml
same,increased the activity of SODM compared to control animals,[1]; [20],1.6 times
same,AP,[2]; [21],1108 ± 91 nM/s-L
same,AP,[2]; [22],1180 ± 91 nM/s-L
same,MDA,"malondialdehyde (MDA) [3]; blood serum, 0.1 mkg/kg",0.169 ± 0.012 OD532
same,MDA,"malondialdehyde (MDA) [3]; blood serum, 10.0 mkg/kg",0.217 ± 0.030 OD532
same,reduced MDA content,"malondialdehyde (MDA) [3]; small dose, treatment after Indomethacin",70%
same,Adrenal Glands Rel. wt.,[4]; [21],0.017 ± 0.001%
same,Adrenal Glands Wt.,[4]; [21],37.1 ± 1.3 mg
same,Liver Rel. wt.,[4]; [21],2.99 ± 0.060%
same,Liver Wt.,[4]; [21],6.549 ± 0.282 g
same,Spleen Rel. wt.,[4]; [21],0.433 ± 0.041%
same,Spleen Wt.,[4]; [21],0.912 ± 0.044 g
same,Thymus Rel. wt.,[4]; [21],0.124 ± 0.007 %
same,Thymus Wt.,[4]; [21],0.277 ± 0.018 g
same,Adrenal Glands Rel. wt.,[4]; [22],0.018 ± 0.001%
same,Adrenal Glands Wt.,[4]; [22],38.5 ± 1.4 mg
same,Liver Rel. wt.,[4]; [22],3.053 ± 0.065%
same,Liver Wt.,[4]; [22],6.770 ± 0.335 g
same,Spleen Rel. wt.,[4]; [22],0.434 ± 0.018%
same,Spleen Wt.,[4]; [22],0.926 ± 0.060 g
same,Thymus Rel. wt.,[4]; [22],0.133 ± 0.009%
same,Thymus Wt.,[4]; [22],0.320 ± 0.030 g
same,SODM,[5]; 0.1 mkg/kg + stress,2.20 ± 0.09 con. units/ml
same,SODM,[5]; 10 mkg/kg + stress,2.35 ± 0.11 con. units/ml
same,Adrenal Glands Rel Wt.,[6]; 0.1 mkg/kg + stress,0.017 ± 0.001 %
same,Adrenal Glands Wt.,[6]; 0.1 mkg/kg + stress,40.8 ± 1.1 mg
same,Spleen Rel Wt.,[6]; 0.1 mkg/kg + stress,0.37 ± 0.06 %
same,Spleen Wt.,[6]; 0.1 mkg/kg + stress,0.872 ± 0.066 g
same,Thymus Rel Wt.,[6]; 0.1 mkg/kg + stress,0.124 ± 0.010 %
same,Thymus Wt.,[6]; 0.1 mkg/kg + stress,0.307 ± 0.028 g
same,reducing adrenal weight compared to that of the control animals,[6]; 0.1 mkg/kg + stress,16 - 17%
same,Adrenal Glands Rel Wt.,[6]; 10.0 mkg/kg + stress,0.018 ± 0.001 %
same,Adrenal Glands Wt.,[6]; 10.0 mkg/kg + stress,45.2 ± 2.2 mg
same,Spleen Rel Wt.,[6]; 10.0 mkg/kg + stress,0.41 ± 0.03%
same,Spleen Wt.,[6]; 10.0 mkg/kg + stress,0.977 ± 0.082 g
same,Thymus Rel Wt.,[6]; 10.0 mkg/kg + stress,0.154 ± 0.008%
same,Thymus Wt.,[6]; 10.0 mkg/kg + stress,0.350 ± 0.022 g
same,lowered the relative weight of the spleen compared to that of the intact animals,[6]; small doses + stress,24%
same,animals survived,[7]; 0.1 mkg/kg,9 out of 10
same,animals survived,"[7]; on the 5th day, control 7 out of 10",9 out of 10
same,MDA,malondialdehyde (MDA) [8]; [18],0.124 ± 0.009 OD532
same,MDA,malondialdehyde (MDA) [8]; [19],0.158 ± 0.030 OD532
same,reduced the final LP-MDA product concentration compared to control animals,malondialdehyde (MDA) [8]; [20],14%
same,AP,[9]; 0.1 mkg/kg + stress,1100 ± 54 nM/s-L
same,AP,[9]; 10.0 mkg/kg + stress,1123 ± 55 nM/s-L
same,ALT,[10]; [21],1.04 ± 0.06 mM/hr-L
same,ALT,[10]; [22],1.08 ± 0.06 mM/hr-L
same,AP,[11]; 0.1 mkg/kg,1357 ± 58 nM/c*L
same,AP,[11]; 10.0 mkg/kg,1368 ± 148 nM/c*L
same,MDA,malondialdehyde (MDA) [12]; 0.1 mkg/kg + stress,0.130 ± 0.019 OD532
same,MDA,malondialdehyde (MDA) [12]; 10 mkg/kg + stress,0.128 ± 0.020 OD532
same,Adrenal Glands Rel. wt.,[13]; 0.1 mkg/kg,0.019 ± 0.002%
same,Adrenal Glands Wt.,[13]; 0.1 mkg/kg,41.8 ± 5.1
same,Liver Rel. wt.,[13]; 0.1 mkg/kg,3.27 ±0.18%
same,Liver Wt.,[13]; 0.1 mkg/kg,7.062 ± 0.411 g
same,Spleen Rel. wt.,[13]; 0.1 mkg/kg,0.48 ± 0.03%
same,Spleen Wt.,[13]; 0.1 mkg/kg,1.061 ± 0.085 g
same,Thymus Rel. wt.,[13]; 0.1 mkg/kg,0.081 ± 0.007%
same,Thymus Wt.,[13]; 0.1 mkg/kg,0.173 ± 0.018 g
same,Adrenal Glands Rel. wt.,[13]; 10.0 mkg/kg,0.022 ± 0.002%
same,Adrenal Glands Wt.,[13]; 10.0 mkg/kg,48.3 ± 2.2
same,Liver Rel. wt.,[13]; 10.0 mkg/kg,3.76 ± 0.020 %
same,Liver Wt.,[13]; 10.0 mkg/kg,8.310 ± 0.426 g
same,Spleen Rel. wt.,[13]; 10.0 mkg/kg,0.56 ± 0.05%
same,Spleen Wt.,[13]; 10.0 mkg/kg,1.233 ± 0.104 g
same,Thymus Rel. wt.,[13]; 10.0 mkg/kg,0.078 ± 0.008%
same,Thymus Wt.,[13]; 10.0 mkg/kg,0.179 ± 0.032 g
same,ALT,[14]; 0.1 mkg/kg,0.75 ± 0.09 mM/h*L
same,ALT,[14]; 10.0 mkg/kg,0.66 ± 0.11 mM/h*L
same,SODM,[15]; 0.1 mkg/kg,3.1 ± 0.11 conv. units/ml
same,SODM,[15]; 10.0 mkg/kg,3.06 ± 0.16 conv. units/ml
same,ALT,[16]; 0.1 mkg/kg + stress,1.55 ± 0.15 mM/hr-L
same,ALT,[16]; 10.0 mkg/kg + stress,1.78 ± 0.08 mM/hr-L
same,Body weight In 5 days,[17]; 0.1 mkg/kg,84.4 ± 2.3
same,Body weight In 5 days,[17]; 10.0 mkg/kg,84.1 ± 3.0
aluminum complex of beta-D-fructofuranosyl-alpha-D-glucopyranoside octakis (hydrosulfate) [Sucralfate],SODM,[1]; [23],2.68 ± 0.14 con. units/ml
same,AP,[2]; [23],931 ± 108 nM/s-L
same,MDA,malondialdehyde (MDA) [3]; 200 mg/kg,0.155 ± 0.037 OD532
same,Adrenal Glands Rel. wt.,[4]; [23],0.017 ± 0.001%
same,Liver Rel. wt.,[4]; [23],3.259± 0.049%
same,Liver Wt.,[4]; [23],7.702 ± 0.224 g
same,Spleen Rel. wt.,[4]; [23],0.490 ± 0.020%
same,Spleen Wt.,[4]; [23],1.070 ± 0.041 g
same,Thymus Rel. wt.,[4]; [23],0.130 ± 0.009%
same,Thymus Wt.,[4]; [23],0.306 ± 0.023 g
same,SODM,[5]; 200 mg/kg + stress,2.32 ± 0.11 con. units/ml
same,Adrenal Glands Rel Wt.,[6]; 200 mg/kg + stress,0.017 ± 0.001 %
same,Adrenal Glands Wt.,[6]; 200 mg/kg + stress,41.6 ± 2.7 mg
same,Spleen Rel Wt.,[6]; 200 mg/kg + stress,0.40 ± 0.02%
same,Spleen Wt.,[6]; 200 mg/kg + stress,0.974 ± 0.057 g
same,Thymus Rel Wt.,[6]; 200 mg/kg + stress,0.140 ± 0.007%
same,Thymus Wt.,[6]; 200 mg/kg + stress,0.327 ± 0.016 g
same,MDA,malondialdehyde (MDA) [8]; [23],0.134 ± 0.024 OD532
same,AP,[9]; 200 mg/kg + stress,1113 ± 77 nM/s-L
same,ALT,[10]; [23],1.05 ± 0.05 mM/hr-L
same,AP,[11]; 200 mg/kg,1260 ± 104 nM/c*L
same,MDA,malondialdehyde (MDA) [12]; 200 mg/kg + stress,0.147 ± 0.007 OD532
same,Adrenal Glands Rel. wt.,[13]; 200 mg/kg,0.023± 0.002%
same,Adrenal Glands Wt.,[13]; 200 mg/kg,50.1 ± 3.2
same,Liver Rel. wt.,[13]; 200 mg/kg,3.23 ± 0.13%
same,Liver Wt.,[13]; 200 mg/kg,7.158 ± 0.330 g
same,Spleen Rel. wt.,[13]; 200 mg/kg,0.57 ± 0.04%
same,Spleen Wt.,[13]; 200 mg/kg,1.260 ± 0.083 g
same,Thymus Rel. wt.,[13]; 200 mg/kg,0.070 ± 0.005 %
same,Thymus Wt.,[13]; 200 mg/kg,0.155 ± 0.011 g
same,ALT,[14]; 200 mg/kg,0.69 ± 0.05 mM/h*L
same,SODM,[15]; 200 mg/kg,2.66 ± 0.11 conv. units/ml
same,ALT,[16]; 200 mg/kg + stress,1.57 ± 0.06 mM/hr-L
same,Body weight In 5 days,[17]; 200 mg/kg,86.6 ± 2.5
